Reference: paper PMC12865225 (Clinical and Translational Science, 2026)
Values joined by “and” are separate entries in the source; they are usually repeats but may differ in a detail not shown here. Equal values may be shown once. Marks after values point to notes of the source that are not given here.

Molecular target: T1, OATP1B3 (Homo sapiens, UniProt Q9NPD5)
T1 construct: expressed in transfected cells; host or cells: HEK293 (recombinant baculovirus-mediated transduction)
T1 sequence (Q9NPD5 1-702): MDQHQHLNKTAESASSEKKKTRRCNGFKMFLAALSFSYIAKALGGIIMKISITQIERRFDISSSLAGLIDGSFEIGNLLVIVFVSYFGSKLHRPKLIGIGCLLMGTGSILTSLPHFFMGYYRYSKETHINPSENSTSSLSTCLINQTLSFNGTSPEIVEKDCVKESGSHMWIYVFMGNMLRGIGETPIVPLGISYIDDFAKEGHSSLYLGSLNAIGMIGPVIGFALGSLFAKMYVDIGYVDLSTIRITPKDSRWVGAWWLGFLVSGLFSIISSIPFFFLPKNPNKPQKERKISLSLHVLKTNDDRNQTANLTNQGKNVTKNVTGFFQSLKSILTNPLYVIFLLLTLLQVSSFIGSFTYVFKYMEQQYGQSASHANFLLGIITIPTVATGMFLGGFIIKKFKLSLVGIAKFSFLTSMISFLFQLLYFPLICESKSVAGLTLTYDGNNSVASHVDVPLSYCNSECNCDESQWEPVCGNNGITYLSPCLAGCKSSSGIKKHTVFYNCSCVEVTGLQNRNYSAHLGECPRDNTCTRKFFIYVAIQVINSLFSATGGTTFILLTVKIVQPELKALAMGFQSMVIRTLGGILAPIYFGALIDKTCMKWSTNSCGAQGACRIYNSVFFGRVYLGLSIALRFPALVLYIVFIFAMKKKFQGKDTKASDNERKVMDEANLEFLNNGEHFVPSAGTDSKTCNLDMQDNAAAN
Experiment: OATP1B3 inhibition, rosuvastatin uptake into transporter-expressing HEK293 cells
Assay type: cell-based
Conditions: for IC50: IC50 (95% CI), μM OATP1B3, 2.5 μM rosuvastatin, 2 min, 30 min preincubation; for Calculated R-value OATP1B3: R = 1 + (I in,max,u/IC50), FDA cut-off ≥ 1.1
Description: The human transporters OATP1B1, OATP1B3, OATP2B1, and OAT1‐OAT4 and a negative control protein (enhanced yellow fluorescent protein, eYFP) were transiently expressed in human embryonic kidney 293 (HEK293) cells by recombinant baculovirus‐mediated transduction. Baculoviruses carrying human genes for the transporters were prepared as reported previously. HEK293 cells were cultured in DMEM containing 10% fetal bovine serum at 37°C and 5% CO2 and passaged two to three times per week. For the transport studies, 0.05 × 10^6 cells for 48‐well plates (OATPs) or 0.06 × 10^6 cells for 24‐well plates (OATs) were seeded onto cell‐culture treated well plates coated with poly‐D‐lysine. After 1 day, cells were transduced to produce recombinant proteins by changing media to DMEM containing 30 μL (48‐well plates) or 60 μL (24‐well plates) of recombinant baculovirus and 3 mM (OATs) or 5 mM (OATPs) sodium butyrate in a total media volume of 500 μL. The cells were cultured for a further 2 days before the transport assays.
For the transport studies, media were removed and cells were washed once with warm transport uptake buffer (TP‐buffer—pH 7.4 HBSS with 25 mM HEPES and 4 mM sodium bicarbonate). Each experiment included triplicate (OATP) or duplicate (OAT) samples for every test condition. The uptake was started by removing liquid from wells and applying warm TP‐buffer (200 μL for 24‐well plates or 125 μL for 48‐well plates) containing a test compound to cells. Transport assays were terminated after a pre‐specified incubation time (reported in figure legends) by removing substrate solution and washing cells three times with cold TP‐buffer (300 μL for 48‐well plates and 400 μL for 24‐well plates). For the liquid chromatography mass spectrometry (LC–MS) analysis, compounds were extracted from cells with 125 μL (48‐well plates) or 250 μL (24‐well plates) of an ultrapure‐water solution containing 75% methanol and 0.1% formic acid, shaking at 250 RPM for 30 min. […] Samples were transferred to well plates, centrifuged at 3000 g for 30 min, and transferred to a new well plate for the analysis.
In the OATP inhibition assays, inhibitors in warm TP‐buffer were directly applied to cells after media removal, followed by a 30‐min preincubation step in the presence of inhibitors. […] OAT1 and OAT3 cells were lysed with 200 μL of 1 M sodium hydroxide for 10 min, and 150 μL of these samples were transferred to a black well plate for fluorescein quantification. […]
For the inhibition data analysis, the average of measured concentrations in the control cells was subtracted from the average of measured concentrations in transporter‐expressing cells for each inhibitor concentration and then normalized to the vehicle sample that represents 100% transport activity. […]

Row | Structure (SMILES) | IC50 | Calculated R-value OATP1B3
1 | Cc1onc(-c2c(F)cccc2Cl)c1C(=O)N[C@@H]1C(=O)N2[C@@H]1SC(C)(C)[C@@H]2C(=O)O [Flucloxacillin] | 21 µM | 1.7 ^a
2 | Cc1onc(-c2c(Cl)cccc2Cl)c1C(=O)N[C@@H]1C(=O)N2[C@@H]1SC(C)(C)[C@@H]2C(=O)O [Dicloxacillin] | 6.7 µM and 6.68 µM | 1.8 ^a
